US9695155B2, “Herbicidal substituted pyrimidinyloxy benzene compounds” (E. I. DU PONT DE NEMOURS AND COMPANY, priority 2013, dated 2017)

Experiments:
[1] = tested on: bromegrass, downy; experiment: Test C postemergence; assay type: in vivo, Bromus tectorum; conditions: for Plant response rating (0 to 100), Bromegrass, Downy: postemergence; for Plant response rating, Bromegrass, Downy: Postemergence, scale 0 to 100 (0 no effect, 100 complete control)
Excerpt: (§1) Seeds of plant species selected from blackgrass (Alopecurus myosuroides), Italian ryegrass (Lolium multiflorum), wheat, winter (winter wheat, Triticum aestivum), galium (catchweed bedstraw, Galium aparine), corn (Zea mays), large (Lg) crabgrass (Digitaria sanguinalis), giant foxtail (Setaria faberii), johnsongrass (Sorghum halepense), lambsquarters (Chenopodium album), morningglory (Ipomoea coccinea), yellow nutsedge (Cyperus esculentus), pigweed (Amaranthus retroflexus), ragweed (common ragweed, Ambrosia elatior), soybean (Glycine max), barnyardgrass (Echinochloa crus-galli), oilseed rape (Brassica napus), waterhemp (common waterhemp, Amaranthus rudis), kochia (Kochia scoparia), wild oat (Avena fatua), surinam grass (Brachiaria decumbens), foxtail, green (green foxtail, Setaria viridis), goosegrass (Eleusine indica), bromegrass, downy (downy bromegrass, Bromus tectorum), nightshade (eastern black nightshade, Solanum ptycanthum), cocklebur (common cocklebur, Xanthium strumarium), cupgrass, woolly (woolly cupgrass, Eriochloa villosa), bermudagrass (Cynodon dactylon), sunflower, (common oilseed sunflower, Helianthus annuus), Russian thistle (Salsola kali), and velvetleaf (Abutilon theophrasti) were planted into a blend of loam soil and sand and treated preemergence with test chemicals formulated in a non-phytotoxic solvent mixture which included a surfactant.
(§2) At the same time, plants selected from these crop and weed species and also barley, winter (winter barley, Hordeum vulgare), windgrass (Apera spica-venti), chickweed (common chickweed, Stellaria media), deadnettle (henbit deadnettle, Lamium amplexicaule), and canarygrass (littleseed canarygrass, Phalaris minor) were planted in pots containing Redi-Earth® planting medium (Scotts Company, 14111 Scottslawn Road, Marysville, Ohio 43041) comprising spaghnum peat moss, vermiculite, wetting agent and starter nutrients and treated with postemergence applications of test chemicals formulated in the same manner. Plants ranged in height from 2 to 18 cm (1- to 4-leaf stage) for postemergence treatments. Treated plants and controls were maintained in a greenhouse for 13 to 15 days, after which time all species were compared to controls and visually evaluated. Plant response ratings, summarized in Table C, are based on a scale of 0 to 100 where 0 is no effect and 100 is complete control. A dash (-) response means no test result.

[2] = tested on: barley, winter; experiment: Test C postemergence; assay type: in vivo, Hordeum vulgare; conditions: for Plant response rating (0 to 100), Barley: postemergence; for Plant response rating, Barley: Postemergence, scale 0 to 100 (0 no effect, 100 complete control)
Excerpt: as §1, §2

[3] = tested on: cupgrass, woolly; experiment: Test C postemergence; assay type: in vivo, Eriochloa villosa; conditions: for Plant response rating (0 to 100), Cupgrass, Woolly: postemergence; for Plant response rating, Cupgrass, Woolly: Postemergence, scale 0 to 100 (0 no effect, 100 complete control)
Excerpt: as §1, §2

[4] = tested on: bermudagrass; experiment: Test C postemergence; assay type: in vivo, Cynodon dactylon; conditions: for Plant response rating (0 to 100), Bermudagrass: postemergence; for Plant response rating, Bermudagrass: Postemergence, scale 0 to 100 (0 no effect, 100 complete control)
Excerpt: as §1, §2

[5] = tested on: surinam grass; experiment: Test C postemergence; assay type: in vivo, Brachiaria decumbens; conditions: for Plant response rating, Surinam Grass: Postemergence, scale 0 to 100 (0 no effect, 100 complete control)
Excerpt: as §1
as §2, with “Treated plants and controls were maintained in a greenhouse for 13 to 15 days, after which time all species were compared to controls and visually evaluated. Plant response ratings, summarized in Table C, are based on a scale of 0 to 100 where 0 is no effect and 100 is complete control. A dash (-) response means no test result.” left out

[6] = tested on: goosegrass; experiment: Test C postemergence; assay type: in vivo, Eleusine indica; conditions: for Plant response rating (0 to 100), Goosegrass: postemergence; for Plant response rating, Goosegrass: Postemergence, scale 0 to 100 (0 no effect, 100 complete control)
Excerpt: as §1, §2

[7] = tested on: foxtail, green; experiment: Test C postemergence; assay type: in vivo, Setaria viridis; conditions: for Plant response rating (0 to 100), Foxtail, Green: postemergence; for Plant response rating, Foxtail, Green: Postemergence, scale 0 to 100 (0 no effect, 100 complete control)
Excerpt: as §1, §2

[8] = tested on: deadnettle; experiment: Test C postemergence; assay type: in vivo, Lamium amplexicaule; conditions: for Plant response rating (0 to 100), Deadnettle: postemergence; for Plant response rating, Deadnettle: Postemergence, scale 0 to 100 (0 no effect, 100 complete control)
Excerpt: as §1, §2

[9] = tested on: canarygrass; experiment: Test C postemergence; assay type: in vivo, Phalaris minor; conditions: for Plant response rating (0 to 100), Canarygrass: postemergence; for Plant response rating, Canarygrass: Postemergence, scale 0 to 100 (0 no effect, 100 complete control)
Excerpt: as §1, §2

[10] = tested on: windgrass; experiment: Test C postemergence; assay type: in vivo, Apera spica-venti; conditions: for Plant response rating (0 to 100), Windgrass: postemergence; for Plant response rating, Windgrass: Postemergence, scale 0 to 100 (0 no effect, 100 complete control)
Excerpt: as §1, §2

[11] = tested on: cocklebur; experiment: Test C postemergence; assay type: in vivo, Xanthium strumarium; conditions: for Plant response rating (0 to 100), Cocklebur: postemergence; for Plant response rating, Cocklebur: Postemergence, scale 0 to 100 (0 no effect, 100 complete control)
Excerpt: as §1, §2

[12] = tested on: smartweed; experiment: Test E preemergence; assay type: in vivo, ladysthumb smartweed; conditions: for Smartweed plant response rating: scale 0 to 100 (0 no effect, 100 complete control); for Plant response rating, Smartweed: scale 0 to 100, 0 no effect, 100 complete control
Excerpt: Seeds of plant species selected from corn (Zea mays), soybean (Glycine max), velvetleaf (Abutilon theophrasti), lambsquarters (Chenopodium album), wild poinsettia (Euphorbia heterophylla), palmer pigweed (Amaranthus palmeri), waterhemp (common waterhemp, Amaranthus rudis), surinam grass (Brachiaria decumbens), large (Lg) crabgrass (Digitaria sanguinalis), Brazilian crabgrass (Digitaria horizontalis), fall panicum (Panicum dichotomiflorum), giant foxtail (Setaria faberii), green foxtail (Setaria viridis), goosegrass (Eleusine indica), johnsongrass (Sorghum halepense), ragweed (common ragweed, Ambrosia elatior), barnyardgrass (Echinochloa crus-galli), sandbur (southern sandbur, Cenchrus echinatus), arrowleaf sida (Sida rhombifolia), Italian ryegrass (Lolium multiflorum), dayflower (Virginia (VA) dayflower, Commelina virginica), field bindweed (Convolvulus arvensis), morningglory (Ipomoea coccinea), nightshade (eastern black nightshade, Solanum ptycanthum), kochia (Kochia scoparia), yellow nutsedge (Cyperus esculentus), cocklebur (common cocklebur, Xanthium strumarium), smartweed (ladysthumb smartweed, and hairy beggarticks (Bidens pilosa), were planted into a silt loam soil and treated preemergence with test chemicals formulated in a non-phytotoxic solvent mixture which included a surfactant.
At the same time, plants from these crop and weed species and also horseweed (Canada horseweed, Conyza canadensis), waterhemp_RES1, (ALS & Triazine resistant common waterhemp, Amaranthus rudis), and waterhemp_RES2, (ALS & HPPD resistant common waterhemp, Amaranthus rudis) were planted in pots containing Redi-Earth® planting medium (Scotts Company, 14111 Scottslawn Road, Marysville, Ohio 43041) comprising spaghnum peat moss, vermiculite, wetting agent and starter nutrients were treated with postemergence applications of test chemicals formulated in the same manner. Plants ranged in height from 2 to 18 cm for postemergence treatments (1- to 4-leaf stage). Treated plants and controls were maintained in a greenhouse for 14 to 21 days, after which time all species were compared to controls and visually evaluated. Plant response ratings, summarized in Table E, are based on a scale of 0 to 100 where 0 is no effect and 100 is complete control. A dash (-) response means no test result.

With `Clc1cnn(-c2ccccc2Oc2ncc(Br)cn2)c1` [Compound 5, 5-bromo-2-[2-(4-chloro-1H-pyrazol-1-yl)phenoxy]pyrimidine] the “Plant response rating (0 to 100), Bromegrass, Downy” value ([1]; 125 g ai/ha) was 5, the “Plant response rating (0 to 100), Bromegrass, Downy” value ([1]; 250 g ai/ha) was 10 and the “Plant response rating, Bromegrass, Downy” value ([1]; 31 g ai/ha, 13 to 15 days) was 5. The “Plant response rating, Bromegrass, Downy” value ([1]; 62 g ai/ha) was 5, the “Plant response rating (0 to 100), Barley” value ([2]; 125 g ai/ha) was 5 and the “Plant response rating (0 to 100), Barley” value ([2]; 250 g ai/ha) was 10. For the same compound, the “Plant response rating, Barley” value ([2]; 31 g ai/ha, 13 to 15 days) was 0, the “Plant response rating, Barley” value ([2]; 62 g ai/ha) was 0 and the “Plant response rating (0 to 100), Cupgrass, Woolly” value ([3]; 125 g ai/ha) was 10. The “Plant response rating (0 to 100), Cupgrass, Woolly” value ([3]; 250 g ai/ha) was 30, the “Plant response rating, Cupgrass, Woolly” value ([3]; 31 g ai/ha, 13 to 15 days) was 0 and the “Plant response rating, Cupgrass, Woolly” value ([3]; 62 g ai/ha) was 10. For the same compound, the “Plant response rating (0 to 100), Bermudagrass” value ([4]; 125 g ai/ha) was 10, the “Plant response rating (0 to 100), Bermudagrass” value ([4]; 250 g ai/ha) was 35 and the “Plant response rating, Bermudagrass” value ([4]; 31 g ai/ha, 13 to 15 days) was 0. The “Plant response rating, Bermudagrass” value ([4]; 62 g ai/ha) was 0, the “Plant response rating (0 to 100), Surinam Grass” value ([5]; 125 g ai/ha, postemergence) was 45 and the “Plant response rating, Surinam Grass” value ([5]; 31 g ai/ha, 13 to 15 days) was 10. For the same compound, the “Plant response rating, Surinam Grass” value ([5]; 62 g ai/ha) was 35, the “Plant response rating (0 to 100), Goosegrass” value ([6]; 125 g ai/ha) was 10 and the “Plant response rating (0 to 100), Goosegrass” value ([6]; 250 g ai/ha) was 15. The “Plant response rating, Goosegrass” value ([6]; 31 g ai/ha, 13 to 15 days) was 0, the “Plant response rating, Goosegrass” value ([6]; 62 g ai/ha) was 5 and the “Plant response rating (0 to 100), Foxtail, Green” value ([7]; 125 g ai/ha) was 40. For the same compound, the “Plant response rating (0 to 100), Foxtail, Green” value ([7]; 250 g ai/ha) was 70, the “Plant response rating, Foxtail, Green” value ([7]; 31 g ai/ha, 13 to 15 days) was 0 and the “Plant response rating, Foxtail, Green” value ([7]; 62 g ai/ha) was 40. For the same compound, the “Plant response rating (0 to 100), Deadnettle” value ([8]; 125 g ai/ha) was 90, the “Plant response rating (0 to 100), Deadnettle” value ([8]; 250 g ai/ha) was 90 and the “Plant response rating, Deadnettle” value ([8]; 31 g ai/ha, 13 to 15 days) was 50. The “Plant response rating, Deadnettle” value ([8]; 62 g ai/ha) was 50, the “Plant response rating (0 to 100), Canarygrass” value ([9]; 125 g ai/ha) was 30 and the “Plant response rating (0 to 100), Canarygrass” value ([9]; 250 g ai/ha) was 40. For the same compound, the “Plant response rating, Canarygrass” value ([9]; 31 g ai/ha, 13 to 15 days) was 5, the “Plant response rating, Canarygrass” value ([9]; 62 g ai/ha) was 10 and the “Plant response rating (0 to 100), Windgrass” value ([10]; 125 g ai/ha) was 60. For the same compound, the “Plant response rating (0 to 100), Windgrass” value ([10]; 250 g ai/ha) was 85, the “Plant response rating, Windgrass” value ([10]; 31 g ai/ha, 13 to 15 days) was 10 and the “Plant response rating, Windgrass” value ([10]; 62 g ai/ha) was 40. For the same compound, the “Plant response rating (0 to 100), Cocklebur” value ([11]; 125 g ai/ha) was 50, the “Plant response rating (0 to 100), Cocklebur” value ([11]; 250 g ai/ha) was 65 and the “Plant response rating, Cocklebur” value ([11]; 31 g ai/ha, 13 to 15 days) was 25. For the same compound, the “Plant response rating, Cocklebur” value ([11]; 62 g ai/ha) was 50.

In the case of `N#Cc1cccc(Oc2ncc(Cl)cn2)c1-n1cc(Cl)cn1` [Compound 72], the “Smartweed plant response rating” value ([12]; 16 g ai/ha) is reported as 0, the “Smartweed plant response rating” value ([12]; 31 g ai/ha) is reported as 0 and the “Smartweed plant response rating” value ([12]; 62 g ai/ha) is reported as 0. The “Plant response rating, Smartweed” value ([12]; 125 g ai/ha) was 90 and the “Plant response rating, Smartweed” value ([12]; 250 g ai/ha) was 98.
